# Measured values reported in patent US20110123482A1, “Methods of Treating Neurological Autoimmune Disorders with Cyclophosphamide” (The Johns Hopkins University, priority 2007, published 2011).
# Read-outs that look alike come from different tables or passages of the source.
# Tests used:
# [1] = system: chronic relapsing experimental autoimmune encephalomyelitis (R-EAE) in SJL/J mice; conditions: mouse, in vivo
# [2] = system: RRMS; conditions: cited from earlier work
# [3] = system: class II MHC molecules; conditions: cited from earlier work
Molecule,rate of induced relapse with PLP reimmunization following CPA treatment [1] [%],spontaneous relapse rate of RR-EAE following CPA treatment [1] [%],"cessation of EAE activity, share of animals ([1]; 200 mg/kg) [%]",induced relapse rate [1] [%],rate of cessation of EAE activity by CPA [1] [%],spontaneous relapse rate [1] [%],"time of treatment to reduce the number of lesions and relapses ([2]; 20 mg GA, compared to placebo controls)","time of treatment to reduce the number of lesions and relapses ([2]; 40 mg daily, compared to controls)",binding affinity to class II MHC molecules [3]
"O=P1(N(CCCl)CCCl)NCCCO1 (stereo not drawn) [CPA, N,N-bis(2-chloroethyl)-1,3,2-oxazaphosphinan-2-amine 2-oxide]",70,30,95,,,,,,
glatiramer acetate,,,,10,95,2,approximately 3 months,less than 3 months,binds with high affinity
